Data from paper PMC9127750, “Structure-based design of CDC42 effector interaction inhibitors for the treatment of cancer” (Cell reports, 2022).
“And” between values parts separate entries of the source, which are not always exact repeats. Identical values can stand only once.

Tested on: WM3248 melanoma cells, 486 antibodies
Assay: Reverse phase protein arrays (RPPA)
Type: cell-based, Human
From the text: Pellets were snap frozen in liquid nitrogen and shipped to MD Anderson Cancer Center core RPPA facility for RPPA analysis (Table S5). Three biological replicates for each sample were generated.
Nomenclatures on the RPPA heatmaps: name_of_antibody.species_of_antibody.status_of_antibody. V - antibody validated; C - validation of antibody in progress; Q - antibody nonspecific; E – under evaluation; antibodies raised in M - mouse, G - goat, R - rabbit, or T - rat.

## CN(C)c1cccc(Nc2cc(-c3ccccc3)nc(C3CCNCC3)n2)c1 [ARN22089, N1,N1-dimethyl-N3-(6-phenyl-2-(piperidin-4-yl)pyrimidin-4-yl)benzene-1,3-diamine]
Level 10 vs 0
  LCN2.R.V Norm_10 Average: 1.417
  LDHA.R.C Norm_10 Average: 1.541
  LRP6_pS1490.R.V Norm_10 Average: 0.919
  Lasu1.R.V Norm_10 Average: 1.173
  MACC1.R.V Norm_10 Average: 0.973
  MAPK_pT202_Y204.R.C Norm_10 Average: 0.758
  MCT4.R.V Norm_10 Average: 0.926
  MDM2_pS166.R.V Norm_10 Average: 1.140
  MEK1.R.V Norm_10 Average: 1.376
  MEK1_pS217_S221.R.V Norm_10 Average: 0.904
  MEK2.R.V Norm_10 Average: 0.981
  MERIT40.R.C Norm_10 Average: 0.966
  MERIT40_pS29.R.V Norm_10 Average: 1.055
  METTL3.R.V Norm_10 Average: 1.153
  MIF.R.C Norm_10 Average: 1.003
  MIG6.R.V Norm_10 Average: 0.937
  MITF.R.V Norm_10 Average: 1.099
  MLH1.M.V Norm_10 Average: 0.965
  MLKL.R.V Norm_10 Average: 0.901
  MMP2.R.V Norm_10 Average: 0.936
  MMP14.R.V Norm_10 Average: 1.251
  MR1.M.C Norm_10 Average: 1.002
  MSH6.R.C Norm_10 Average: 1.139
  MSI2.R.C Norm_10 Average: 1.076
  MTCO1.M.V Norm_10 Average: 1.058
  MTSS1.M.C Norm_10 Average: 0.995
  Mcl.1.R.V Norm_10 Average: 0.815
  MelanA.R.C Norm_10 Average: 0.907
  Melanoma.gp100.R.C Norm_10 Average: 0.952
  Merlin.R.C Norm_10 Average: 1.140
  Midkine.R.V Norm_10 Average: 0.931
  Mitofusin.1.R.V Norm_10 Average: 0.966
  Mitofusin.2.R.V Norm_10 Average: 0.982
  Mnk1.R.V Norm_10 Average: 0.908
  mTOR_pS2448.R.C Norm_10 Average: 1.026
Level 10 vs 0, replicates
  HLA.DQA1.R.V Norm_10: 0.816 and 1.208 and 0.956
  HLA.DR.DP.DQ.DX.R.C Norm_10: 0.907 and 1.197
  HMHA1.R.V Norm_10: 0.915 and 0.873 and 0.979
  HNRNPK.R.V Norm_10: 0.952 and 0.960
  HSP27.M.C Norm_10: 0.892 and 1.008 and 0.976
  HSP27_pS82.R.V Norm_10: 0.956 and 0.808 and 0.983
  HSP60.R.V Norm_10: 0.910 and 0.899 and 0.970
  HSP70.R.C Norm_10: 0.893 and 0.957
  Hexokinase.I.R.C Norm_10: 1.324 and 1.263
  Hexokinase.II.R.V Norm_10: 1.158 and 1.060 and 1.165
  Hif.1αR.C Norm_10: 1.534 and 0.812 and 1.121
  Histone.H3.R.V Norm_10: 1.104 and 1.109 and 0.657
  Histone.H3_pS10.R.V Norm_10: 0.925 and 1.333 and 0.853
  IDO.R.C Norm_10: 1.020 and 0.847 and 1.005
  IGF1R_pY1135_Y1136.R.V Norm_10: 1.020 and 0.873 and 0.862
  IGFBP2.R.V Norm_10: 0.915 and 0.942
  IGFBP3.M.V Norm_10: 0.808 and 1.056 and 1.048
  IGFRb.R.C Norm_10: 1.063 and 0.914 and 0.882
  IL.6.R.C Norm_10: 0.956 and 0.898 and 0.919
  IMP3.R.C Norm_10: 0.902 and 1.022 and 0.935
  INPP4b.R.C Norm_10: 0.944 and 1.130 and 1.013
  IR.b.R.C Norm_10: 1.057 and 0.927 and 0.958
  IRF.1.R.V Norm_10: 0.995 and 0.851 and 0.777
  IRF.3.R.V Norm_10: 0.868 and 1.016 and 1.018
  IRS1.R.V Norm_10: 1.002 and 0.864 and 0.920
  IRS2.R.C Norm_10: 1.495 and 0.732 and 0.873
  JAB1.M.C Norm_10: 1.010
  JNK2.R.V Norm_10: 0.700 and 4.357 and 1.864
  JNK_pT183_Y185.R.C Norm_10: 1.101 and 0.836 and 0.927
  Jagged1.R.V Norm_10: 0.925 and 0.930 and 0.952
  Jak2.R.V Norm_10: 0.891 and 0.946
  KAP1.R.V Norm_10: 1.129 and 0.933 and 1.246
  KEAP1.R.V Norm_10: 1.137 and 0.961 and 0.953
  LAD1.R.V Norm_10: 0.810 and 0.787 and 1.126
  LC3A.B.R.C Norm_10: 1.080
  LCN2.R.V Norm_10: 1.979 and 1.149 and 1.123
  LDHA.R.C Norm_10: 1.080 and 1.446 and 2.097
  LRP6_pS1490.R.V Norm_10: 0.997 and 0.923 and 0.837
  Lasu1.R.V Norm_10: 0.972 and 1.377 and 1.170
  Lck.R.V Norm_10: 1.025
  Lyn.R.V Norm_10: 0.836 and 1.342 and 1.046
  MACC1.R.V Norm_10: 0.988 and 0.983
  MAPK_pT202_Y204.R.C Norm_10: 0.814 and 0.633 and 0.828
  MCT4.R.V Norm_10: 0.718 and 0.987
  MDM2_pS166.R.V Norm_10: 1.187 and 1.159
  MEK1.R.V Norm_10: 3.067 and 0.225 and 0.836
